{"source": "paper PMC5657534", "about": "(Nature chemical biology, 2017)", "target": "ClbH (full-length) (Escherichia coli, UniProt Q0P7J8)", "sequence (Q0P7J8 1-1598)": "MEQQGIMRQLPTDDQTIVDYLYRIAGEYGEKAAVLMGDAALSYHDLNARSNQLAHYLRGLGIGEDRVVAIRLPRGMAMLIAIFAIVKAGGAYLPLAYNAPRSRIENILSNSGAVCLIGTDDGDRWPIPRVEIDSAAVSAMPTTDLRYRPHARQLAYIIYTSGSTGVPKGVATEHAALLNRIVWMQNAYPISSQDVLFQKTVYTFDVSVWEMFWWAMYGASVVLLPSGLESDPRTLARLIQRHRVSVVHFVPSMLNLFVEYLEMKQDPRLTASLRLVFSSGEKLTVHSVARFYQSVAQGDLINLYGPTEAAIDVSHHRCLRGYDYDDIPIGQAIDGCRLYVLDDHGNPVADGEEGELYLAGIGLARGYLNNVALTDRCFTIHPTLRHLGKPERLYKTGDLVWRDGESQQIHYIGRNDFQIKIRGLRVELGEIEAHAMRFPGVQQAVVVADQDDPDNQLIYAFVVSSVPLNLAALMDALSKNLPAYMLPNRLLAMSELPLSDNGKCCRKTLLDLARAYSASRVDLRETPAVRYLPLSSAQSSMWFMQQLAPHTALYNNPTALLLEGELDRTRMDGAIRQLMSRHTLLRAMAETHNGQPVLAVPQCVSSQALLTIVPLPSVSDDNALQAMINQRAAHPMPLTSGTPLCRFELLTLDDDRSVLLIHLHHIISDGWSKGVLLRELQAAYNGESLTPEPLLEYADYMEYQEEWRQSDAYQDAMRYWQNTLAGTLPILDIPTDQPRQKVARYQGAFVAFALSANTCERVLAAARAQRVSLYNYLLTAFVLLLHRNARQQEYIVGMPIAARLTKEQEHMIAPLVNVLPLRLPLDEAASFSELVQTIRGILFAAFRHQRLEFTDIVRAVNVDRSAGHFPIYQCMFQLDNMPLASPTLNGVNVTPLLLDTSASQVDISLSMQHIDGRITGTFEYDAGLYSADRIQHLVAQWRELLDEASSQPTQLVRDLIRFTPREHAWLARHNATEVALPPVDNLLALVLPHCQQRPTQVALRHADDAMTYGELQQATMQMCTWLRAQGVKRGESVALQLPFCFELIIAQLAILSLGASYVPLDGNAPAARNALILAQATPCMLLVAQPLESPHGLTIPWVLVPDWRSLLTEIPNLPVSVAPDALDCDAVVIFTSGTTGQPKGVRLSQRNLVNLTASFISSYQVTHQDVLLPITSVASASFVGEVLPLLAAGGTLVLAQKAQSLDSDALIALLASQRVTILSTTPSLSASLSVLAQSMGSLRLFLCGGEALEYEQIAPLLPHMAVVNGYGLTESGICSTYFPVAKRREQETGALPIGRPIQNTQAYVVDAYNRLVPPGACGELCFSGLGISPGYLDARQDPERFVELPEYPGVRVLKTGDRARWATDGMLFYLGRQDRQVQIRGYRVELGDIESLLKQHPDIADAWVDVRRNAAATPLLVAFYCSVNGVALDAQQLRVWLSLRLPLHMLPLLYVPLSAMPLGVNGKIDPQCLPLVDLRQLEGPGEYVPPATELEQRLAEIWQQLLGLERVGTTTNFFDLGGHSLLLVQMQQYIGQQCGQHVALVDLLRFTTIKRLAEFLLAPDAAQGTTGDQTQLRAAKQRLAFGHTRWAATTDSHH", "test": "ATP-[…]PPi exchange", "format": "biochemical", "details": "Mg2+, pH 8.3, room temperature, 1 mM amino acid", "data": [{"smiles": "N[C@@H](CO)C(=O)O", "note": "[L-Ser]", "values": [{"measurement": "ATP-[32P]PPi exchange", "result": "full-length ClbH activated L-Ser and SAM (Fig. 1b)"}]}]}
